According to ChEMBL document CHEMBL1146176, “Synthesis and anti-microbial activity of pyrazolylbisindoles--promising anti-fungal compounds” (2006):

How the values were obtained:
Format in all cases: functional
Curvularia lunata [1] = assay: Antifungal activity against Curvularia lunata at 1 mmol after 48 hrs relative to control
Pseudomonas aeruginosa [2] = assay: Antimicrobial activity against Pseudomonas aeruginosa at 1 mmol after 48 hrs relative to control
[3] = tested on: Staphylococcus epidermidis; assay: Antimicrobial activity against Staphylococcus epidermidis at 1 mmol after 48 hrs relative to control
[4] = tested on: Staphylococcus epidermidis; assay: Antimicrobial activity against Staphylococcus epidermidis at 1 mmol after 48 hrs
Candida albicans [5] = assay: Antimicrobial activity against Candida albicans at 1 mmol after 48 hrs
Pseudomonas aeruginosa [6] = assay: Antimicrobial activity against Pseudomonas aeruginosa at 1 mmol after 48 hrs
Curvularia lunata [7] = assay: Antifungal activity against Curvularia lunata at 1 mmol after 48 hrs
Thanatephorus cucumeris [8] = assay: Antifungal activity against Rhizoctonia solani at 1 mmol after 48 hrs
Candida albicans [9] = assay: Antimicrobial activity against Candida albicans at 1 mmol after 48 hrs relative to control
Thanatephorus cucumeris [10] = assay: Antifungal activity against Rhizoctonia solani at 1 mmol after 48 hrs relative to control
Pseudomonas aeruginosa [11] = assay: Inhibition of growth of Pseudomonas aeruginosa at 0.622 mg/ml after 48 hrs relative to control
Candida albicans [12] = assay: Antimicrobial activity against Candida albicans at 0.622 mg/ml after 48 hrs; details: read-out: IZ
Pseudomonas aeruginosa [13] = assay: Inhibition of growth of Pseudomonas aeruginosa at 0.622 mg/ml after 48 hrs; details: read-out: IZ
[14] = tested on: Staphylococcus epidermidis; assay: Inhibition of growth of Staphylococcus epidermidis at 0.622 mg/ml after 48 hrs; details: read-out: IZ
[15] = tested on: Staphylococcus epidermidis; assay: Inhibition of growth of Staphylococcus epidermidis at 0.622 mg/ml after 48 hrs relative to control
Candida albicans [16] = assay: Antimicrobial activity against Candida albicans at 0.622 mg/ml after 48 hrs relative to control
Thanatephorus cucumeris [17] = assay: Antifungal activity against Rhizoctonia solani at 0.652 mg/ml after 48 hrs relative to control
Curvularia lunata [18] = assay: Antifungal activity against Curvularia lunata at 0.652 mg/ml after 48 hrs; details: read-out: IZ
Thanatephorus cucumeris [19] = assay: Antifungal activity against Rhizoctonia solani at 0.652 mg/ml after 48 hrs; details: read-out: IZ
Curvularia lunata [20] = assay: Antifungal activity against Curvularia lunata at 0.652 mg/ml after 48 hrs relative to control

SMILES	Inhibition (Curvularia lunata [1]) [%]	Inhibition (Pseudomonas aeruginosa [2]) [%]	Inhibition [3] [%]	inhibition zone (IZ) [4] [cm]	inhibition zone (IZ) (Candida albicans [5]) [cm]	inhibition zone (IZ) (Pseudomonas aeruginosa [6]) [cm]	inhibition zone (IZ) (Curvularia lunata [7]) [cm]	inhibition zone (IZ) (Thanatephorus cucumeris [8]) [cm]	Inhibition (Candida albicans [9]) [%]	Inhibition (Thanatephorus cucumeris [10]) [%]	inhibition at 622 µg/mL (Pseudomonas aeruginosa [11]) [%]	zone of inhibition at 622 µg/mL (Candida albicans [12]) [mm]	zone of inhibition at 622 µg/mL (Pseudomonas aeruginosa [13]) [mm]	zone of inhibition at 622 µg/mL [14] [mm]	Inhibition [15] [%]	inhibition at 622 µg/mL (Candida albicans [16]) [%]	inhibition at 652 µg/mL (Thanatephorus cucumeris [17]) [%]	zone of inhibition at 652 µg/mL (Curvularia lunata [18]) [mm]	zone of inhibition at 652 µg/mL (Thanatephorus cucumeris [19]) [mm]	inhibition at 652 µg/mL (Curvularia lunata [20]) [%]
COc1ccc(-c2nn(-c3ccccc3)cc2C(c2c[nH]c3ccc([N+](=O)[O-])cc23)c2c[nH]c3ccc([N+](=O)[O-])cc23)cc1	84.4	0	0	0	0	0	1.4	4.8	0	53.3										
CCn1c(-c2ccccc2)c(C(c2cn(-c3ccccc3)nc2-c2ccc(Br)cc2)c2c(-c3ccccc3)n(CC)c3ccccc23)c2ccccc21	13.3	0	7.9	0.7	0	0	7.8	7.5	0	16.7										
O=[N+]([O-])c1ccc2[nH]cc(C(c3cn(-c4ccccc4)nc3-c3ccccc3)c3c[nH]c4ccc([N+](=O)[O-])cc34)c2c1	0	14.4	0	0	0	1.3	9	9	0	0										
Clc1ccc(-c2nn(-c3ccccc3)cc2C(c2c[nH]c3ccc(Br)cc23)c2c[nH]c3ccc(Br)cc23)cc1	15.6	0	0	0	0.6	0	7.6	7.4	6.7	17.8										
CCn1c(-c2ccccc2)c(C(c2cn(-c3ccccc3)nc2-c2ccc(Cl)cc2)c2c(-c3ccccc3)n(CC)c3ccccc23)c2ccccc21	42.2	15.6	15.6	1.4	0.5	1.4	5.2	7.3	5.6	18.8										
Brc1ccc(-c2nn(-c3ccccc3)cc2C(c2c[nH]c3ccc(Br)cc23)c2c[nH]c3ccc(Br)cc23)cc1	91.1	16.7	0	0	2.2	1.5	0.8	1.7	24.4	81.1										
Brc1ccc2[nH]cc(C(c3cn(-c4ccccc4)nc3-c3ccccc3)c3c[nH]c4ccc(Br)cc34)c2c1	47.8			2.1	2.7	1.8	4.7	5.3		41.1	20	27	18	21	≤ 23.3	30				
COc1ccc(-c2nn(-c3ccccc3)cc2C(c2c[nH]c3ccc(Br)cc23)c2c[nH]c3ccc(Br)cc23)cc1		15.6	0	0	0	1.4			0								93.9	3	5	96.7
